For orientation: MIC means the lowest concentration that inhibits growth of the organism.

For test [1], the system named is Trichophyton mentagrophytes SM-110. Nature of the test: Antifungal activity evaluation test: minimum inhibitory concentration (MIC), broth dilution by reference to CLSI M38-A2. Type of test: cell-based. Conditions: SM110, read-out: MIC (T. menta.). In a few lines: (§1)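 MIC read visually as lowest concentration inhibiting growth by at least 80% relative to control after 4 days at 35° C. Trichophyton strains inoculated at 2×10^3 cells/mL final in MOPS-buffered RPMI 1640 (pH 7.0); compounds as 2-fold DMSO series, CLSI M38-A2 basis.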
In general terms: In broth dilution the organism is exposed to a series of concentrations in liquid medium.

In test [2] the test system is Trichophyton rubrum KD-1130. The test is described as above. Type of test: cell-based. As to conditions: KD1130, read-out: MIC (T. rubrum). In a few lines: as §1

In brackets after ≈: the same amount, converted by molar mass.

Consider `FC(F)(F)c1ccc(Oc2ncccc2-c2cccc3nccnc23)cn1` [I-37, 5-(2-{[6-(trifluoromethyl)pyridin-3-yl]oxy}pyridin-3-yl)quinoxaline], for which the MIC in test [1] and in test [2] was 0.2 to 0.78 µg/mL (≈ 0.543 to 2.12 µM) in each case.
Regarding `FC(F)(F)c1ccc(Oc2ncncc2-c2cccc3c2OCC3)cn1` [I-327, 5-(2,3-dihydrobenzofuran-7-yl)-4-{[6-(trifluoromethyl)pyridin-3-yl]oxy}pyrimidine], the MIC in test [1] and in test [2] was at most 0.1 µg/mL in each case.
For `COc1ccccc1-c1cncnc1Oc1ccc(C(C)C)cc1` [I-320, 4-(4-isopropylphenoxy)-5-(2-methoxyphenyl)pyrimidine], the MIC in test [1] and in test [2] was at most 0.1 µg/mL throughout.
With `COc1ccncc1-c1cccnc1Oc1ccc2c(c1)CCCC2` [I-267, 4′-methoxy-[(5,6,7,8-tetrahydronaphthalen-2-yl)oxy]-3,3′-bipyridine], the minimum inhibitory concentration (MIC) in test [1] and in test [2] was at most 0.1 µg/mL each time.
Consider `COc1ccccc1-c1cccnc1Oc1ccc(C(F)(F)CN(C)OC)nc1` [I-150, N-[2,2-difluoro-2-(5-{[3-(2-methoxyphenyl)pyridin-2-yl]oxy}pyridin-2-yl)ethyl]-N,O-dimethylhydroxylamine], for which the minimum inhibitory concentration (MIC) in test [1] and in test [2] was at most 0.1 µg/mL throughout.
As for `COc1cc(F)ccc1-c1cccnc1Oc1ccc(Cl)nc1` [I-366], the MIC in test [1] and in test [2] was at most 0.1 µg/mL each time.
`COc1ccccc1-c1cccnc1Oc1ccc(OCc2cccnc2)nc1` [I-174, 3-(2-methoxyphenyl)pyridin-2-{[6-(pyridin-3-ylmethoxy)pyridin-3-yl]oxy}pyridine]: the MIC in test [1] and in test [2] was at most 0.1 µg/mL throughout.
As for `FC(F)(F)c1ccc(Oc2ncccc2-c2cccc3ncccc23)cn1` [I-36, 5-(2-{[6-(trifluoromethyl)pyridin-3-yl]oxy}pyridin-3-yl)quinoline], the MIC in test [1] was at most 0.1 µg/mL; in test [2], 0.2 to 0.78 µg/mL (≈ 0.544 to 2.12 µM).
For `CC(F)(F)c1ccc(Oc2ncncc2-c2cccc3ccnn23)cc1` [I-333, 7-{4-[4-(1,1-difluoroethyl)phenoxy]pyrimidin-5-yl}pyrazolo[1,5-a]pyridine] the same measures were at most 0.1 µg/mL and at most 0.1 µg/mL.
Regarding `COc1ncccc1-c1nccnc1Oc1ccc(OCc2ccccc2)cc1` [I-318, 2-[4-(benzyloxy)phenoxy]-3-(2-methoxypyridin-3-yl)pyrazine], the minimum inhibitory concentration (MIC) in test [1] and in test [2] was at most 0.1 µg/mL in each case.
Consider `COc1ncccc1-c1cccnc1Oc1ccc(OC(F)F)cc1` [I-446], for which the MIC in test [1] and in test [2] was at most 0.1 µg/mL throughout.
For the molecule `COc1ccccc1-c1cccnc1Oc1ccc(OC(F)F)cc1` [I-445], the MIC in test [1] and in test [2] was at most 0.1 µg/mL throughout.
As to `COCCN(C)c1ncc(Oc2ncccc2-c2ccc(F)cc2OC)cn1` [I-188, 5-{[3-(4-fluoro-2-methoxyphenyl)pyridin-2-yl]oxy}-N-(2-methoxyethyl)-N-methylpyrimidin-2-amine], the MIC in test [1] and in test [2] was at most 0.1 µg/mL in each case.
Consider `COc1ncccc1-c1cccnc1Oc1ccc(CCOC(=O)N(C)C)cc1` [I-398, 4-{[(2′-methoxy-(3,3′-bipyridin)-2-yl]oxy}phenethyl dimethylcarbamate], for which the MIC in test [1] and in test [2] was at most 0.1 µg/mL in each case.
For `COc1ccc(-c2cccnc2Oc2ccc(C(F)F)nc2)c(OC)n1` [I-78, 2′-{[6-(difluoromethyl)pyridin-3-yl]oxy}-2,6-dimethoxy-3,3′-bipyridine], the MIC in test [1] and in test [2] was at most 0.1 µg/mL in each case.
For the molecule `COCC(F)(F)c1ccc(Oc2ncccc2-c2cccnc2OC)cn1` [I-348, 2-{[6-(1,1-difluoro-2-methoxyethyl)pyridin-3-yl]oxy}-2′-methoxy-3,3′-bipyridine], the MIC in test [1] and in test [2] was 0.2 to 0.78 µg/mL (≈ 0.536 to 2.09 µM) each time.
As to `COc1ccccc1-c1cccnc1Oc1ccc(C(F)(F)CN2CCOCC2)nc1` [I-148, 4-[2,2-difluoro-2-(5-{[3-(2-methoxyphenyl)pyridin-2-yl]oxy}pyridin-2-yl)-ethyl]morpholine], the MIC in test [1] and in test [2] was 0.2 to 0.78 µg/mL (≈ 0.468 to 1.82 µM) throughout.
Consider `COc1c(Cl)cncc1-c1cncnc1Oc1ccc(C(F)(F)F)cc1` [I-331, 5-(5-chloro-4-methoxypyridin-3-yl)-4-[4-(trifluoromethyl)phenoxy]pyrimidine], for which the minimal inhibitory concentration (MIC) in test [1] and in test [2] was at most 0.1 µg/mL throughout.
In the case of `COc1ccncc1-c1cccnc1Oc1ccc(C(F)F)cc1` [I-294, 2-[4-(difluoromethyl)phenoxy]-4′-methoxy-3,3′-bipyridine], the MIC in test [1] and in test [2] was 0.2 to 0.78 µg/mL (≈ 0.609 to 2.38 µM) in each case.
As for `FC(F)(F)c1ccc(Oc2ncccc2-c2cccc3ncnn23)cc1` [I-230, 5-{2-[4-(trifluoromethyl)phenoxy]pyridin-3-yl}[1,2,4]triazolo[1,5-a]pyridine], the minimum inhibitory concentration (MIC) in test [1] and in test [2] was 0.2 to 0.78 µg/mL (≈ 0.561 to 2.19 µM) throughout.
As to `COc1ncccc1-c1cccnc1Oc1ccc(CCc2nc(C)no2)cc1` [I-411], the MIC in test [1] and in test [2] was at most 0.1 µg/mL throughout.
For the molecule `Clc1ccc(Oc2nccnc2-c2cccc3ccccc23)cc1` [I-314, 2-(4-chlorophenoxy)-3-(naphthalen-1-yl)pyrazine], the MIC is 0.2 to 0.78 µg/mL (≈ 0.601 to 2.34 µM) in test [1] and at most 0.1 µg/mL in test [2].
With `COc1ccncc1-c1cccnc1Oc1ccc(C(C)(F)F)cc1` [I-297, 2-[4-(1,1-difluoroethyl)-phenoxy]-4′-methoxy-3,3′-bipyridine], the MIC in test [1] and in test [2] was at most 0.1 µg/mL in each case.
Take `Cn1ncc(Cl)c1-c1cccnc1Oc1ccc(C(F)(F)F)cc1` [I-222, 3-(4-chloro-1-methyl-1H-pyrazol-5-yl)-2-[4-(trifluoromethyl)phenoxy]pyridine]: the MIC in test [1] and in test [2] was at most 0.1 µg/mL each time.
Take `COc1cc(F)ccc1-c1cccnc1Oc1cnc(N(C)Cc2nccs2)nc1` [I-194, 5-{[3-(4-fluoro-2-methoxyphenyl)pyridin-2-yl]oxy}-N-methyl-N-(thiazol-2-ylmethyl)pyrimidin-2-amine]: the MIC was at most 0.1 µg/mL in test [1] and 0.2 to 0.78 µg/mL (≈ 0.472 to 1.84 µM) in test [2].
In the same order, the values of `CC(=O)c1ccc(Oc2ncccc2-c2cnccc2C)cc1` [I-422] are 0.2 to 0.78 µg/mL (≈ 0.657 to 2.56 µM) and 0.2 to 0.78 µg/mL (≈ 0.657 to 2.56 µM).
For `COc1cc(F)ccc1-c1cccnc1Oc1cnc(N(C)C)c(C)c1` [I-369] the same measures were at most 0.1 µg/mL and at most 0.1 µg/mL.
For `COCC(F)(F)c1ccc(Oc2ncccc2-c2cc(F)cc3nccnc23)cn1` [I-170, 5-(2-{[6-(1,1-difluoro-2-methoxyethyl)pyridin-3-yl]oxy}pyridin-3-yl)-7-fluoroquinoxaline] the same measures were 0.2 to 0.78 µg/mL (≈ 0.485 to 1.89 µM) and 0.2 to 0.78 µg/mL (≈ 0.485 to 1.89 µM).
`COCC(F)(F)c1ccc(Oc2ncccc2-c2cc(Cl)cnc2OC)cn1` [I-451]: the MIC in test [1] and in test [2] was at most 0.1 µg/mL throughout.
`COc1ccncc1-c1cccnc1Oc1ccc(CC(F)(F)F)cc1` [I-249, 4′-methoxy-2-[4-(2,2,2-trifluoroethyl)phenoxy]-3,3′-bipyridine]: the MIC in test [1] and in test [2] was 0.2 to 0.78 µg/mL (≈ 0.555 to 2.16 µM) each time.
Consider `COc1cc(F)ccc1-c1cccnc1Oc1cnc(N(C)Cc2cocn2)nc1` [I-193, 5-{[3-(4-fluoro-2-methoxyphenyl)pyridin-2-yl]oxy}-N-methyl-N-(oxazol-4-ylmethyl)pyrimidin-2-amine], for which the minimal inhibitory concentration (MIC) in test [1] and in test [2] was at most 0.1 µg/mL throughout.
With `CC(=O)CC(=O)c1ccc(Oc2ncccc2-c2cnccc2C)cc1` [I-424], the minimal inhibitory concentration (MIC) in test [1] is 0.2 to 0.78 µg/mL (≈ 0.577 to 2.25 µM); in test [2] it was at most 0.1 µg/mL.
In the same order, the values of `COc1ccccc1-c1cccnc1Oc1ccc(C(F)(F)Cn2cccn2)nc1` [I-350, 2-({6-[1,1-difluoro-2-(1H-pyrazol-1-yl)ethyl]pyridin-3-yl}oxy)-3-(2-methoxyphenyl)pyridine] are at most 0.1 µg/mL and at most 0.1 µg/mL.
In the same order, the values of `Cc1cnn(-c2ccc(Oc3ncccc3-c3cnccc3C)cc2)c1` [I-432] are at most 0.1 µg/mL and at most 0.1 µg/mL.
In the same order, the values of `COc1ccc(F)cc1-c1cccnc1Oc1ccc(C(C)(F)F)nc1` [I-83, 2-{[6-(1,1-difluoroethyl)pyridin-3-yl]oxy}-3-(5-fluoro-2-methoxyphenyl)pyridine] are at most 0.1 µg/mL and at most 0.1 µg/mL.
With `COc1nc(C)ccc1-c1cccnc1Oc1ccc(C(F)(F)F)nc1` [I-29, 2-methoxy-6-methyl-2′-{[6-(trifluoromethyl)pyridin-3-yl]oxy}-3,3′-bipyridine], the MIC in test [1] and in test [2] was at most 0.1 µg/mL throughout.
Consider `c1cnc(Oc2cnc3c(c2)CCC3)c(-c2cccc3c2OCC3)c1` [I-138, 3-{[3-(2,3-dihydrobenzofuran-7-yl)pyridin-2-yl]oxy}-6,7-dihydro-5H-cyclopenta[b]pyridine], for which the MIC in test [1] and in test [2] was at most 0.1 µg/mL each time.
`COC(=O)CN(C)c1ncc(Oc2ncccc2-c2cccnc2OC)cn1` [I-354, methyl 2-[(5-{[2′-methoxy-(3,3′-bipyridin)-2-yl]oxy}-pyrimidin-2-yl)(methyl)amino]acetate]: the minimal inhibitory concentration (MIC) in test [1] is at most 0.1 µg/mL; in test [2], 0.2 to 0.78 µg/mL (≈ 0.524 to 2.05 µM).
On to `COc1ncncc1-c1cccnc1Oc1ccc(C(F)F)c(C)c1` [I-457], for which the minimal inhibitory concentration (MIC) in test [1] and in test [2] was at most 0.1 µg/mL throughout.
Consider `COc1ccc(OC)c(-c2cccnc2Oc2ccc(C(C)(F)F)nc2)c1` [I-84, 2-{[6-(1,1-difluoroethyl)pyridin-3-yl]oxy}-3-(2,5-dimethoxyphenyl)pyridine], for which the MIC in test [1] and in test [2] was at most 0.1 µg/mL in each case.
`CCc1ccc(Oc2ncccc2-c2cncc(C=O)c2OC)cc1` [I-287, 2′-(4-ethylphenoxy)-4-methoxy-(3,3′-bipyridine)-5-carbaldehyde]: the MIC in test [1] and in test [2] was 0.2 to 0.78 µg/mL (≈ 0.598 to 2.33 µM) throughout.
Consider `COc1ccc(-c2cccnc2Oc2ccc(C(C)(F)F)nc2)c(OC)n1` [I-94, 2′-{[6-(1,1-difluoroethyl)pyridin-3-yl]oxy}-2,6-dimethoxy-3,3′-bipyridine], for which the MIC in test [1] and in test [2] was at most 0.1 µg/mL throughout.

(Values after patent US10647675B2 (priority 2015, dated 2020).)
